Where “and” joins values, the source holds several entries; their conditions need not be identical. Equal entries are not always repeated. Where two headings read alike, the source gives them in different places.
What was measured:
[1] = tested on: Merlot protoplasts; settings: for Ave colonies per bead / Number of colonies, Total / Number of colonies per bead: + 1.0 mM PUT, 0.1 mM SPD; for Number of colonies, Total: total of 5 beads; for Number of colonies per bead: beads 1-5
Procedure: I have developed and tested an antioxidant solution consisting of 100 mg/l ascorbic acid, 150 mg/l citric acid, 30 mg/l reduced glutathione and 100 mg/l L-cysteine (PTF AQ). I tested the effect of this antioxidant addendum on protoplast viability and division on Thompson seedless and Merlot protoplast culture. Protoplast were isolated and encapsulated in 1.6% calcium alginate beads. Calcium alginate beads from the same protoplast preparation were randomly transferred to shake flasks containing conditioned 0.4 M Pic/TDZ 1103P feeder cell suspensions with or without the addition of 1× or 5× of the antioxidant solutions. After 14 days, the osmotic strength of the feeder suspension was reduced from 0.4 M to 0.2 M mannitol. At day 35, I randomly harvested five beads per treatment and counted the number of mini calli per bead.

[2] = tested on: TS protoplast; assay: Polyamines: callus colony formation from encapsulated protoplasts in 1103P feeder suspension; type: cell-based, grape; settings: for # colonies/alginate bead: 14 days after encapsulation, beads 1-5; for # colonies/alginate bead, Average / # colonies, Total: 14 days; for # colonies, Total: total of 5 beads
Procedure: We re-suspended embedded protoplasts in conditioned osmotically adjusted grape cell suspension cultures in 125 ml shake flasks and incubated them at 100 rpm and 25 degrees centigrade. In this system, we utilize a grape nurse suspension culture that is of a different genotype than the genotype used to generate the protoplasts. For example, we used 1103P conditioned cell suspension cultures for embedded Thompson Seedless protoplasts.
Recently, we have replaced the use of the shake flasks with 60×15 mm petri plates. This format allows for easy observation of the protoplasts using an inverted microscope and aids sampling of beads to evaluate the fate of the embedded protoplasts. Beads are cultured in 3.5 ml of Lloyd and McCown minimal organics medium supplemented with 30 g/l sucrose, 10 mg/l Picloram and 2.0 mg/l TDZ, 0.4 M mannitol, 1,191 mg/l HEPES, 50 mM CaCl2, 5× antioxidant solution with 1.5 ml of conditioned 1103P cell suspension culture.
We are testing the ability of these polyamines to increase the plating efficiency of encapsulated protoplast as well as increase the rate of cell division. Initially we tested 1.0 mM putrescine in combination with 0.0 or 0.1 mM spermidine since we have previously found these levels to be beneficial in other plant species.

[3] = tested on: protoplast-derived somatic embryos; assay: Maintenance of embryo-containing beads on sorbitol-containing agar medium; type: cell-based, grape; settings: beads maintained on agar-solidified medium containing sorbitol (50 g/l)
Procedure: Using forceps, we manually transferred individual beads to a 100×20 mm petri dish containing 40 ml of Lloyd and McCown minimal organics medium supplemented with 20 g/l sucrose, 1 g/l casein, 222 mg/l CaCl2, without hormones or activated charcoal. We repeated this transfer/washing process two more times to eliminate any of the feeder suspension cells. We then transferred beads onto agar-solidified 100×20 mm feeder plates containing 40 ml of Lloyd and McCown minimal organics medium supplemented with 20 g/l sucrose, 50 g/l sorbitol, 1 g/l casein, 1 mM MES, 0.5 mg/l BAP and 0.1 mg/l NAA onto which 1.0 ml of a […] grape suspension culture is plated. The grape suspension culture medium consisted of WPM medium supplemented with 20 g/l sucrose 10 mg/l picloram and 2.0 […] mannitol, 222 mg/l CaCl2, 1 g/l casein, 1,191 mg/l HEPES and 2 g/l activated charcoal, pH 5.7. We placed an 85 mm Whatman filter paper over the plated suspension and a 70 mm Whatman filter paper on top of the 85 mm filter. We placed beads on top of the 70 mm filter paper. We add 1 ml Lloyd and McCown minimal organics medium supplemented with 30 g/l sucrose, 1 g/l casein, 1 mM MES, 10 mg/l picloram and 2.0 mg/l TDZ to each plate to prevent desiccation. We incubated the cultures at 26 degrees centigrade in the dark. After approximately 3-4 weeks, mini-calli developed into somatic embryos within the beads (FIG. 15). […]

[4] = SPD 0.0 mM, SPM 0.1 mM, + 1 mM putrescine, Experiment 19129
[5] = SPD 0.0 mM, SPM 1.0 mM, + 1 mM putrescine, Experiment 19129
[6] = SPD 0.0 mM, CAD 0.1 mM, + 1.0 mM putrescine, 0.1 mM spermidine, Experiment 19136
[7] = SPD 0.0 mM, CAD 1.0 mM, + 1.0 mM putrescine, 0.1 mM spermidine, Experiment 19136
[8] = SPD 0.1 mM, CAD 0.0 mM, + 1.0 mM putrescine, 0.1 mM spermidine, Experiment 19136
[9] = SPD 0.1 mM, SPM 0.0 mM, + 1 mM putrescine, Experiment 19129
[10] = SPD 1.0 mM, CAD 0.0 mM, + 1.0 mM putrescine, 0.1 mM spermidine, Experiment 19136
[11] = SPD 1.0 mM, SPM 0.0 mM, + 1 mM putrescine, Experiment 19129

With `NCCCNCCCCNCCCN` [spermine] the “number and speed of mini-callus formation” value ([1]; Merlot derived protoplasts) was “significantly enhanced the number and speed of mini-callus formation”, the “Ave colonies per bead” value ([1]; SPM 0.1 mM) was 0.2 colonies per bead and the “Number of colonies, Total” value ([1]; SPM 0.1 mM) was 1. For the same molecule, the “Ave colonies per bead” value ([1]; SPM 0.25 mM) was 0 colonies per bead, the “Number of colonies per bead” value ([1]; SPM 0.25 mM) was 0 colonies per bead and the “Number of colonies, Total” value ([1]; SPM 0.25 mM) was 0. The “Ave colonies per bead” value ([1]; SPM 0.5 mM) was 0.2 colonies per bead, the “Number of colonies, Total” value ([1]; SPM 0.5 mM) was 1 and the “Ave colonies per bead” value ([1]; SPM 0.75 mM) was 0 colonies per bead. For the same molecule, the “Number of colonies per bead” value ([1]; SPM 0.75 mM) was 0 colonies per bead, the “Number of colonies, Total” value ([1]; SPM 0.75 mM) was 0 and the “Ave colonies per bead” value ([1]; SPM 1.0 mM) was 6.2 colonies per bead. The “Number of colonies, Total” value ([1]; SPM 1.0 mM) was 31, the enhancement in growth ([2]; 0.1 mM spermine, + 1.0 mM putrescine) was “did not see any enhancement in growth” and the callus colony growth ([2]; 1.0 mM spermine, 21 days of culture, regardless of the level of CAD) was “significant enhancement in callus colony growth”. The “number of protoplasts that divided and speed of protoplast derived callus formation” value ([2]; 1.0 mM spermine, + 1.0 mM putrescine, irrespective of the spermidine concentration) was “enhanced the number of protoplasts that divided and the speed of protoplast derived callus formation”, the “# colonies/alginate bead” value ([2]; SPD 0.0 mM, SPM 0.1 mM, + 1 mM putrescine, Experiment 19129, listed as SPM) was 96 colonies/alginate bead and 81 colonies/alginate bead and 79 colonies/alginate bead and 59 colonies/alginate bead and 84 colonies/alginate bead and the “# colonies/alginate bead, Average” value [2, 4] was 79.8 colonies/alginate bead. For the same molecule, the “# colonies, Total” value [2, 4] was 399, the “# colonies/alginate bead, Average” value [2, 5] was 205.8 colonies/alginate bead and the “# colonies, Total” value [2, 5] was 1029. For the same molecule, the “number and speed of mini-callus formation” value ([2]; Thompson seedless derived protoplasts) was “significantly enhanced the number and speed of mini-callus formation”.
For `NCCCCCN` [cadaverine], the “# colonies/alginate bead” value ([2]; SPD 0.0 mM, CAD 0.1 mM, + 1.0 mM putrescine, 0.1 mM spermidine, Experiment 19136, listed as CAD) was 100 colonies/alginate bead and 115 colonies/alginate bead and 92 colonies/alginate bead and 104 colonies/alginate bead and 95 colonies/alginate bead, the “# colonies/alginate bead, Average” value [2, 6] was 101.2 colonies/alginate bead and the “# colonies, Total” value [2, 6] was 506. For the same molecule, the “# colonies/alginate bead” value ([2]; SPD 0.0 mM, CAD 1.0 mM, + 1.0 mM putrescine, 0.1 mM spermidine, Experiment 19136, listed as CAD) was 104 colonies/alginate bead and 82 colonies/alginate bead and 87 colonies/alginate bead and 92 colonies/alginate bead and 73 colonies/alginate bead, the “# colonies/alginate bead, Average” value [2, 7] was 87.6 colonies/alginate bead and the “# colonies, Total” value [2, 7] was 438. For the same molecule, the “cell division or cells growth from grape protoplasts” value ([2]; cadaverine 0.1 or 1.0 mM, + 1.0 mM putrescine, 0.1 mM spermidine, 0.0-1.0 mM spermine) was “does not seem to enhance cell division or cells growth”.
In the case of `NCCCCNCCCN` [spermidine], the “callus colony formation, addition to 1.0 mM putrescine” value ([2]; 0.1 mM spermidine) was “did not enhance the response”, the “# colonies/alginate bead” value ([2]; SPD 0.1 mM, CAD 0.0 mM, + 1.0 mM putrescine, 0.1 mM spermidine, Experiment 19136, listed as SPD) was 68 colonies/alginate bead and 79 colonies/alginate bead and 64 colonies/alginate bead and 65 colonies/alginate bead and 86 colonies/alginate bead and the “# colonies/alginate bead, Average” value [2, 8] was 72.4 colonies/alginate bead. For the same molecule, the “# colonies, Total” value [2, 8] was 362, the “# colonies/alginate bead” value ([2]; SPD 0.1 mM, SPM 0.0 mM, + 1 mM putrescine, Experiment 19129, listed as SPD) was 91 colonies/alginate bead and 93 colonies/alginate bead and 120 colonies/alginate bead and 110 colonies/alginate bead and the “# colonies/alginate bead, Average” value [2, 9] was 101.4 colonies/alginate bead. The “# colonies, Total” value [2, 9] was 507, the “# colonies/alginate bead” value ([2]; SPD 1.0 mM, CAD 0.0 mM, + 1.0 mM putrescine, 0.1 mM spermidine, Experiment 19136, listed as SPD) was 133 colonies/alginate bead and 121 colonies/alginate bead and 115 colonies/alginate bead and 98 colonies/alginate bead and the “# colonies/alginate bead, Average” value [2, 10] was 120 colonies/alginate bead. For the same molecule, the “# colonies, Total” value [2, 10] was 600, the “# colonies/alginate bead” value ([2]; SPD 1.0 mM, SPM 0.0 mM, + 1 mM putrescine, Experiment 19129, listed as SPD) was 81 colonies/alginate bead and 97 colonies/alginate bead and 79 colonies/alginate bead and 125 colonies/alginate bead and 89 colonies/alginate bead and the “# colonies/alginate bead, Average” value [2, 11] was 94.2 colonies/alginate bead. The “# colonies, Total” value [2, 11] was 471.
With `OC[C@@H](O)[C@@H](O)[C@H](O)[C@@H](O)CO` [sorbitol] the “germination of embryos in beads” value [3] was “will not germinate further and become dormant”.
In the case of `NCCCCN` [putrescine], the callus colony formation ([2]; 1.0 mM putrescine) was “stimulated callus colony formation”.
